Article PMC5663395, “Chemical Validation of Methionyl-tRNA Synthetase as a Druggable Target in Leishmania donovani” (ACS Infectious Diseases, 2017)
Like-named read-outs stand apart in the source and are kept apart here.

Legend:
[1] = biological target: LdMetRS (Leishmania donovani, UniProt A0A3Q8IBX2); assay: LdMetRS biochemical enzyme assay (BIOMOL Green); settings: read-out: LdMetRS IC50
Experimental: LdMetRS Assay Development and Kinetic Parameter Determinations
Activity of the LdMetRS enzyme was determined by monitoring levels of pyrophosphate released during the first step of the enzymatic reaction. The pyrophosphate formed was converted to two inorganic phosphate molecules using a pyrophosphatase enzyme and levels of the resulting phosphate molecules measured using the BIOMOL® Green reagent (Enzo Life Sciences) 2.
Following optimization of the assay buffer and determination of the enzyme linearity, 384-well plate based assays were carried out at room temperature in a 50 μl reaction volume containing 30 mM Tris, pH 8.0, 140 mM NaCl, 30 mM KCl, 40 mM MgCl2, 0.01% (v/v) Brij-35, 1 mM DTT, 1 U/ml pyrophosphatase, 50 nM recombinant LdMetRS, and varying concentrations of substrates. Michaelis constants for the ATP and methionine substrates were determined in an end point assay using the above buffer and enzyme conditions. Data were fitted to the modified Michaelis-Menten equations […]
Equation 1 (Hill equation): […]
Equation 2 (High substrate inhibition Michaelis-Menten equation): […]
LdMetRS Inhibitor Studies
All test compounds were solubilized in 100% DMSO to a concentration of 10 mM. To generate IC50 data for the compounds, assay ready plates containing 10-point inhibitor curves (half-log serial dilutions) were prepared using an Echo® 550 (Labcyte).
Following preparation of the inhibitor curves, assays were carried out at room temperature in clear, flat bottom, polystyrene, 384-well plates (Greiner). Each assay was performed in a 50 μl reaction volume containing 30 mM Tris; pH 8.0, 140 mM NaCl, 30 mM KCl, 40 mM MgCl2, 0.01% (v/v) Brij-35, 1 mM DTT, 1 U/ml pyrophosphatase, 50 nM recombinant LdMetRS, 50 µM methionine and 100 µM […]
Assays were performed by adding 25 μl buffer with enzyme to assay plates (with buffer only added to ‘no enzyme’ control wells) before the reaction was initiated with the addition of a 25 μl mix containing methionine, ATP and pyrophosphatase to all wells. Following a 120 min reaction at room temperature the assay was stopped with the addition of 50 μl BIOMOL® Green. The BIOMOL® Green signal was allowed to develop for 30 min before the absorbance of each well was read at 650 nm using an EnVision multilabel plate reader (PerkinElmer Life Sciences). All liquid dispensing steps were carried out using a Thermo Scientific WellMate dispenser (Matrix).
ActivityBase from IDBS (version 8.0.5.4) was used for data processing and analysis. All IC50 curve fitting was undertaken using ActivityBase XE (version 7.7.1) from IDBS. A four-parameter logistic dose-response curve was utilized with prefit used for all four parameters.
For DDD806905 Kiapp determinations, data fitting to the Morrison equation (equation 3) was carried out using GraFit v6.0 (Erithacus Software). It should be noted that data for fitting to the Morrison equation was normalised to a ‘100 µM DDD806905’ control rather than a ‘no enzyme’ control as […]
Equation 3 (Morrison equation): […]
vi = K1 −−([ ] [ ]ET+IT+Ki)−([ ] [ ]ET+IT+i)[ ] [ ]TIE4T
LdMetRS Mode of Inhibition Studies
To establish the mode of inhibition of DDD806905, data sets (generated using the BIOMOL® Green assay platform previously described) were collected by varying both the inhibitor and substrate concentrations. Using GraFit v6.0 (Erithacus Software) each data set was individually fitted to the Michaelis-Menten equation or the modified high substrate inhibition Michaelis-Menten equation described above (equation 2), and the resulting Lineweaver-Burk plots were examined for diagnostic […]
Data sets were then globally fitted to the appropriate model (with equations 4 and 5 used for […]
If more than one model appeared possible, then data were fitted to both and examined for significance using the F-test function in GraFit.

[2] = test system: L. donovani axenic amastigotes; assay: Leishmania axenic amastigote viability assay; format: cell-based, Leishmania donovani; settings: read-out: Leishmania Axenic Amastigote EC50
Experimental: (§1) carried out as described above using 5%, 10% and 20% FBS in the media. To examine the effect of the methionine concentration on the potency of DDD806905 parasites were grown in the presence of drug and in the presence (or absence) of 20-fold excess methionine (0.3 g/l). IC50 curve fitting was undertaken in GraFit version 6.0 (Erithacus Software) using a four-parameter logistic dose-response curve (equation 6), with s the slope.
(§2) Leishmania Axenic Amastigote Assay
(§3) The Leishmania axenic amastigote assay was performed using the method published in Nühs et al 15.
(§4) Leishmania Intracellular Amastigote Assay
(§5) The intramacrophage Leishmania assay was performed using a modified version of the method described in De Rycker et al 16. […]
amphotericin B was included. Controls were as follows: columns 11 and 12: DMSO, columns 23 and 24: amphotericin B (final concentration 2 µM). 350 nl of compound was pre-dispensed into 384-well sterile intermediary plates. To the intermediary plates, 35 µl of THP-1 media was added and plates were shaken for >5 min to ensure complete mixing. THP-1 cells (8,000 per well, 50 µl) were plated into black clear-bottom 384-well plates (Corning) in presence of 20 nM phorbol 12-myristate 13- […]
in a humidified incubator for 75 h. The cells were then washed with 450 µl sterile phosphate buffered saline (PBS) supplemented with 1 mM CaCl2, 0.5 mM MgCl2, 0.1% (w/v) bovine serum albumin (PBS-A) and amastigotes were added to all wells at a multiplicity of infection of 5 (40,000 amastigotes per well). After 40 min at room temperature, plates were returned to the incubator.
Amastigotes were incubated in the presence of THP-1 macrophages for 16 h. Any remaining extracellular amastigotes were subsequently removed by washing with PBS-A followed by addition of 25 µl of the compound pre-dilutions using an Ipette-pro pipetting station (FluidX). The final dilution of each compound was 200-fold. Plates were incubated for 96 h and then washed (250 µl PBS-A) and fixed (4 % (v/v) formaldehyde-PBS, 30 min, room temperature). After fixation, the wells were washed with 250 µl PBS, stained (10 µg/ml DAPI, 0.4 µg/mL HCS Cellmask Deep Red in PBS + 0.1% (v/v) Triton X-100, 30 min, room temperature) and washed with 250 µl PBS. Finally, PBS + 0.05% (v/v) thimerosal was added to the wells, the plates were sealed and imaged on a high-content microscope (GE IN Cell 2000) using a 10x objective. Image analysis was carried out with GE IN Cell Analyzer 1000 Workstation using the “Multi Target Analysis” module. For each well, i) THP-1 cell count (cytotoxicity readout) and ii) average number of amastigotes per cell (potency readout) were […]

[3] = test system: L. donovani promastigotes; assay: Leishmania promastigote viability assay; format: cell-based, Leishmania donovani; settings: Supplementary Table 1; read-out: Leishmania Promastigote EC50
Experimental: After suitable sample preparation, the
In vivo Leishmaniasis Animal Model […]
administered twice daily over the same interval.
Parasite load is expressed in Leishman-
Knock-out and overexpressor generation
Leishmania Promastigote Assay
Serum shift experiments were […]
as §1, §2, §3, §4, §5
amphotericin B was included. Controls were as follows: columns 11 and 12: DMSO, columns 23 and 24: amphotericin B (final concentration 2 µM). 350 nl of compound was pre-dispensed into 384-well sterile intermediary plates. To the intermediary plates, 35 µl of THP-1 media was added and plates were shaken for >5 min to ensure complete mixing. THP-1 cells (8,000 per well, 50 µl) were plated into black clear-bottom 384-well plates (Corning) in presence of 20 nM phorbol 12-myristate 13-

[4] = test system: THP-1 lysosomes; assay: Lysosomotropism assay (LysoTracker Red competition); format: cell-based, human; settings: PMA-differentiated THP-1 cells, 30 min
Experimental: calculated, both in terms of pEC50 values. MIC (minimum inhibitory concentration) values are defined as the lowest concentration tested at which maximal inhibition is reached.
THP-1 cells were differentiated in 96-well plates with PMA as described above. Following differentiation the cells were treated for 30 min with dose-response curves of test compounds in presence of 100 nM LysoTracker Red DND-99 (Thermo Fisher) and 5 µg/ml Hoechst 33342. Next cells were washed 3 times with Hanks Buffered Saline Solution (Gibco) and imaged on a Perkin Elmer Operetta system. An image analysis algorithm to measure mean Lysotracker Red DND-99 intensity per cell was developed in Columbus. Mean Intensity was normalised using a no dye control (100% effect) and DMSO treated wells stained with Lysotracker Red DND-99 (0% effect control). Dose-response curves were fitted for the test compounds using a four-parameter equation (equation 5 above) and constrained to 0 and 100% where necessary.
To measure the pKa of DDD806905, a fast UV-metric method was performed using a Sirius T3 instrument (Sirius Analytical, U.K.). The calculation of the pKa was determined using the Sirius T3 refine software (Sirius Analytical, U.K.). In brief, the UV-metric pKa method is based on measuring pH during an acid-base titration and monitoring UV absorbance shift. The ionisation curve (Bjerrum curve) was then used to determine the pH where exactly 50 % of neutral and 50 % of ionised species was present. DDD806905 must be fully dissolved throughout the titration and so the titration is set to start at the pH where DDD806905 is in its fully ionised state. The appearance of precipitate was monitored throughout the experiment by a turbidity sensing device. […] The pKas of DDD806905 was determined at the pH where there was maximal change in UV absorbance with respect to pH. […]
LogD7.4 values were quantified using a Sirius T3 instrument (Sirius Analytical, U.K.). […] The instrument software calculated the pH of each data point using mass and charge balance equations and then fitted this theoretical data to the experimental data. […]

LdMetRS, sequence (A0A3Q8IBX2 entry or part of it): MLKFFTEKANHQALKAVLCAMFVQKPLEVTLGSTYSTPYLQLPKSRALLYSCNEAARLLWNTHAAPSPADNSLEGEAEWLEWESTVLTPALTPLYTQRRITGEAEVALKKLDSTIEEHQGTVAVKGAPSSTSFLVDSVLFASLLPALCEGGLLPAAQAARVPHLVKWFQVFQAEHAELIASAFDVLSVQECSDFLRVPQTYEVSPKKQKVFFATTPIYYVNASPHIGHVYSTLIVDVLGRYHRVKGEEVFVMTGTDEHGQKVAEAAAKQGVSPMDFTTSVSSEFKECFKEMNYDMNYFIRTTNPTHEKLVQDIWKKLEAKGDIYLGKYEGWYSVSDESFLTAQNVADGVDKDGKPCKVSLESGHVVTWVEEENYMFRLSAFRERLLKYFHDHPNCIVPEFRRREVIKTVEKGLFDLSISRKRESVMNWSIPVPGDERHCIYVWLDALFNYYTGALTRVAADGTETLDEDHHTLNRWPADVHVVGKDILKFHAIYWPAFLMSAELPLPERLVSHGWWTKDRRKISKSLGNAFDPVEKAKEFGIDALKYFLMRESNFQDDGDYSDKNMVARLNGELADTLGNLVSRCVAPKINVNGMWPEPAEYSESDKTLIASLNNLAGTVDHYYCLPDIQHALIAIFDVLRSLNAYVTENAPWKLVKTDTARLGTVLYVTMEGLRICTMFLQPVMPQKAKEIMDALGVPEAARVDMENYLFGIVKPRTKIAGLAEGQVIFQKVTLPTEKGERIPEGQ

Row | SMILES | IC50 ([1]; Table 1) [µM] | EC50 ([2]; Leishmania donovani, Table 1) [µM] | IC50 ([1]; Supplementary Table 1) [µM] | EC50 [3] [µM] | EC50 ([2]; Supplementary Table 1) [µM] | competition with lysotracker red accumulation in THP-1 lysosomes [4]
1 | CN(CCCNc1nc(=O)c2ccccc2[nH]1)Cc1cc2c(Cl)cc(Cl)cc2[nH]1 [Compound 30] | 0.03 | 18 |  |  |  | 
2 | Cc1cc(C)c2cc(CNCCCNc3nc4ccccc4[nH]3)[nH]c2c1 [Compound 12] |  |  | 5.6 | 9.5 | > 50 | 
3 | Cc1c(CNCCCNc2nc3ccccc3[nH]2)[nH]c2cc(Cl)cc(Cl)c12 [Compound 4] |  |  | 2.8 | 1.3 | 38 | 
4 | OCc1c(Cl)cc(Cl)cc1CNCCCNc1nc2ccccc2[nH]1 [Compound 8] |  |  | 47 | 33 | > 50 | 
5 | O=c1nc(OCCCNCc2cc3c(Cl)cc(Cl)cc3[nH]2)[nH]c2ccccc12 [Compound 31] | 22 | > 50 |  |  |  | 
6 | FC(F)(F)c1cc(C(F)(F)F)c2cc(CNCCCNc3nc4ccccc4[nH]3)[nH]c2c1 [Compound 5] |  |  | 46 | 6.2 | 29 | 
7 | Brc1cc(Br)c2c(c1)C(NCCCNc1nc3ncccc3[nH]1)CCN2 (stereo not shown) [Compound 11] |  |  | 0.17 | 0.54 | 6.2 | 
8 | CCOc1c(Cl)cc(Cl)cc1CNCCCNc1nc2ccccc2[nH]1 [Compound 15] |  |  | 5.4 | 4.1 | > 50 | 
9 | O=c1nc(NCCCCCc2cc(Cl)cc(Cl)c2)[nH]c2ccccc12 [Compound 29] | > 100 | > 50 |  |  |  | 
10 | O=c1nc(NCCCNCc2cc(Cl)cc(Cl)c2)[nH]c2ccccc12 [Compound 26] | 0.74 | 38 |  |  |  | 
11 | CCOc1c(Br)cc(C)cc1CNCCCNc1nc2ccccc2[nH]1 [Compound 14] |  |  | 12 | 7.6 | > 50 | 
12 | CCOc1c(CNCCCNc2nc3ccccc3[nH]2)cc(Br)cc1OC [Compound 13] |  |  | 37 | 19 | > 50 | 
13 | COc1cccc2[nH]c(NCCCNCc3cc(Br)cc(Br)c3)nc12 [Compound 7] |  |  | 79 | 19 | > 50 | 
14 | CCN(CC)CCCC(C)Nc1ccnc2cc(Cl)ccc12 (stereo not shown) [chloroquine, reference compound] |  |  |  |  |  | did compete with lysotracker red accumulation
15 | OCCn1c(CNCCCNc2nc3ccccc3[nH]2)cc2c(Cl)cc(Cl)cc21 [Compound 17] |  |  | 0.38 | 0.87 | 19 | 
16 | CCOc1c(Br)cc(Cl)cc1CNCCCNc1nc2ccccc2[nH]1 [Compound 16] |  |  | 5.9 | 4.9 | > 50 | 
17 | O=C(NCCCNc1nc(=O)c2ccccc2[nH]1)c1cc2c(Cl)cc(Cl)cc2[nH]1 [Compound 25] | 3.3 | > 50 |  |  |  | 
18 | Clc1ccc(Cl)c2[nH]c(CNCCCNc3nc4ccccc4[nH]3)cc12 [Compound 3] |  |  | 69 | 7.1 | > 50 | 
19 | COc1cc(C(F)(F)F)c2cc(CNCCCNc3nc4ccccc4[nH]3)[nH]c2c1 [Compound 10] |  |  | 4.8 | 6.5 | > 50 | 
20 | COc1cc(C(F)(F)F)cc2[nH]c(CNCCCNc3nc4ccccc4[nH]3)cc12 [Compound 9] |  |  | > 100 | 7.8 | > 50 | 
21 | O=C(CCNc1nc(=O)c2ccccc2[nH]1)NCc1cc(Cl)cc(Cl)c1 [Compound 27] | 2.8 | 22 |  |  |  | 
